Data from patent publication US11464770B2, “Anticancer pharmaceutical composition” (NATIONAL CANCER CENTER, priority 2016, dated 2022).
Like-named read-outs stand apart in the source and are kept apart here.

Legend:
[1] = tested on: RT4: human urinary bladder transitional cell papilloma; test: Cell based assay, cytotoxicity in RT4 papilloma cells (selectivity); details: Homo sapiens, RT-4; RT4 cells
[2] = tested on: breast cancer cell lines (e.g. MDA-MB-231, SK-BR-3, MDA-MB-468, HCC1954); test: Cell based assay, cell viability (CellTiter-Glo), breast cancer cell lines; details: 72 hours treatment, CellTiter-Glo cell viability
Procedure, shortened: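 Cells were trypsinized, seeded, and left 24 h before compound was added at 0 to 2 μM final. After a further 72 h of culture, viability was read by ATP-based luminescence.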

[3] = Homo sapiens, BT-20 cells, read-out: IC50, Breast cancer cell line BT-20
[4] = Homo sapiens, HCC1395 cells, read-out: IC50, Breast cancer cell line HCC1395
[5] = Homo sapiens, HCC1954 cells, read-out: IC50, Breast cancer cell line HCC1954
[6] = Homo sapiens, JIMT-1 cells, read-out: IC50, Breast cancer cell line JIMT-1
[7] = Homo sapiens, MCF7 cells, read-out: IC50, Breast cancer cell line MCF7
[8] = Homo sapiens, MDA-MB-231 cells, read-out: IC50, Breast cancer cell line MDA-MB-231
[9] = Homo sapiens, MDA-MB-468 cells, read-out: IC50, Breast cancer cell line MDA-MB-468
[10] = Homo sapiens, SK-BR-3 cells, read-out: IC50, Breast cancer cell line SK-BR-3
[11] = MDA-MB-231-L/DOX cells, read-out: IC50, Breast cancer cell line MDA-MB-231-L/DOX

Row | Structure (SMILES) | IC50 [1] | IC50 [2, 3] | IC50 [2, 4] | IC50 [2, 5] | IC50 [2, 6] | IC50 [2, 7] | IC50 [2, 8] | IC50 [2, 9] | IC50 [2, 10] | IC50 [2, 11]
1 | O=C(c1ccccc1)c1c([S+]([O-])Cc2ccc(S(F)(F)(F)(F)F)cc2)[nH]c2c(F)ccc(F)c2c1=O (stereo not shown) [Compound 87, 3-benzoyl-5,8-difluoro-2-((4-(pentafluoro--sulfanyl)benzyl)sulfinyl)quinolin-4(1H)-one] | > 10000 nM | > 2000 nM | > 10000 nM | > 2000 nM | > 10000 nM | > 2000 nM | > 2000 nM | > 2000 nM | > 2000 nM | > 2000 nM
2 | Cc1cc(C[S+]([O-])c2[nH]c3c(Cl)ccc(Cl)c3c(=O)c2C(=O)c2ccccc2)no1 (stereo not shown) [Compound 88, 3-benzoyl-5,8-dichloro-2-(((5-methylisoxazol-3-yl)methyl)sulfinyl)quinolin-4(1H)-one] | > 10000 nM | > 2000 nM | > 10000 nM | > 2000 nM | > 10000 nM | > 2000 nM | > 2000 nM | > 2000 nM | > 2000 nM | > 2000 nM
3 | CC(=O)c1c([S+]([O-])CN2C(=O)c3ccccc3C2=O)[nH]c2c(Cl)ccc(Cl)c2c1=O (stereo not shown) [Compound 90, 2-(((3-acetyl-5,8-dichloro-4-oxo-1,4-dihydroquinolin-2-yl)sulfinyl)methyl)isoindoline-1,3-dione] | > 10000 nM | > 2000 nM | > 10000 nM | > 2000 nM | > 10000 nM | > 2000 nM | > 2000 nM | > 2000 nM | > 2000 nM | > 2000 nM
4 | COC(=O)c1ccc(C[S+]([O-])c2[nH]c3c(Cl)ccc(Cl)c3c(=O)c2C(C)=O)cc1 (stereo not shown) [Compound 91, methyl 4-(((3-acetyl-5,8-dichloro-4-oxo-1,4-dihydroquinolin-2-yl)sulfinyl)methyl)benzoate] | > 10000 nM | > 2000 nM | > 10000 nM | 1820 nM | > 10000 nM | > 2000 nM | > 2000 nM | 1320 nM | 1320 nM | > 2000 nM
5 | COc1cccc2[nH]c(SCc3ccc(S(F)(F)(F)(F)F)cc3)c(C(C)=O)c(=O)c12 [Compound 92, 3-acetyl-5-methoxy-2-((4-(pentafluoro--sulfanyl)benzyl)thio)quinolin-4(1H)-one] | > 10000 nM | > 2000 nM | > 10000 nM | > 2000 nM | > 10000 nM | > 2000 nM | > 2000 nM | > 2000 nM | > 2000 nM | > 2000 nM
6 | COc1cccc2[nH]c([S+]([O-])Cc3ccc(S(F)(F)(F)(F)F)cc3)c(C(C)=O)c(=O)c12 (stereo not shown) [Compound 93, 3-acetyl-5-methoxy-2-((4-(pentafluoro--sulfanyl)benzyl)sulfinyl)quinolin-4(1H)-one] | > 10000 nM | > 2000 nM | > 10000 nM | > 2000 nM | > 10000 nM | > 2000 nM | > 2000 nM | > 2000 nM | > 2000 nM | > 2000 nM
7 | COc1cccc2[nH]c([S+]([O-])Cc3cc(C)on3)c(C(C)=O)c(=O)c12 (stereo not shown) [Compound 94, 3-acetyl-5-methoxy-2-(((5-methylisoxazol-3-yl)methyl)sulfinyl)quinolin-4(1H)-one] | > 10000 nM | > 2000 nM | > 10000 nM | > 2000 nM | > 10000 nM | > 2000 nM | > 2000 nM | 1850 nM | 1850 nM | > 2000 nM
8 | Cc1cc(C[S+]([O-])c2[nH]c3c(Br)ccc(Cl)c3c(=O)c2C(=O)C2CC2)no1 (stereo not shown) [Compound 96, 8-bromo-5-chloro-3-(cyclopropanecarbonyl)-2-(((5-methylisoxazol-3-yl)methyl)sulfinyl)quinolin-4(1H)-one] | > 10000 nM | > 2000 nM | > 10000 nM | 1040 nM | > 10000 nM | > 2000 nM | > 2000 nM | 980 nM | 980 nM | > 2000 nM
9 | Cc1cc(C[S+]([O-])c2[nH]c3c(Cl)ccc(Cl)c3c(=O)c2C(=O)C2CC2)no1 (stereo not shown) [Compound 97, 5,8-dichloro-3-(cyclopropanecarbonyl)-2-(((5-methylisoxazol-3-yl)methyl)sulfinyl)quinolin-4(1H)-one] | > 10000 nM | > 2000 nM | > 10000 nM | 780 nM | > 10000 nM | > 2000 nM | 1780 nM | 760 nM | 760 nM | 1130 nM
10 | CC(=O)c1c([S+]([O-])Cc2ccc(C#N)s2)[nH]c2c(Br)ccc(Cl)c2c1=O (stereo not shown) [Compound 98, 5-(((3-acetyl-8-bromo-5-chloro-4-oxo-1,4-dihydroquinolin-2-yl)sulfinyl)methyl)thiophene-2-carbonitrile] | > 10000 nM | > 2000 nM | > 10000 nM | 1310 nM | > 10000 nM | > 2000 nM | 1860 nM | 1000 nM | 1000 nM | > 2000 nM
11 | CC(=O)c1c([S+]([O-])Cc2ccc(-n3cccn3)nc2)[nH]c2c(Br)ccc(Cl)c2c1=O (stereo not shown) [Compound 99, 2-(((6-(1H-pyrazol-1-yl)pyridin-3-yl)methyl)sulfinyl)-3-acetyl-8-bromo-5-chloroquinolin-4(1H)-one] | > 10000 nM | > 2000 nM | > 2000 nM | 780 nM | > 10000 nM | > 2000 nM | 1170 nM | 670 nM | 670 nM | > 2000 nM
12 | CC(=O)c1c([S+]([O-])Cc2ccc(N)nc2)[nH]c2c(Br)ccc(Cl)c2c1=O (stereo not shown) [Compound 100, 3-acetyl-2-(((6-aminopyridin-3-yl)methyl)sulfinyl)-8-bromo-5-chloroquinolin-4(1H)-one] | > 10000 nM | > 2000 nM | > 10000 nM | > 2000 nM | > 10000 nM | > 2000 nM | > 2000 nM | > 2000 nM | > 2000 nM | > 2000 nM
13 | O=C(c1c([S+]([O-])Cc2ccc(SC(F)(F)F)cc2)[nH]c2c(Br)ccc(Cl)c2c1=O)C1CC1 (stereo not shown) [Compound 101, 8-bromo-5-chloro-3-(cyclopropanecarbonyl)-2-((4-((trifluoromethyl)thio)benzyl)sulfinyl)quinolin-4(1H)-one] | > 10000 nM | > 2000 nM | > 10000 nM | 1220 nM | > 10000 nM | > 2000 nM | > 2000 nM | 1670 nM | 1670 nM | > 2000 nM
14 | CC(=O)c1c([S+]([O-])Cc2ccc(C(F)(F)F)nc2C)[nH]c2c(Br)ccc(Cl)c2c1=O (stereo not shown) [Compound 102, 3-acetyl-8-bromo-5-chloro-2-(((2-methyl-6-(trifluoromethyl)pyridin-3-yl)methyl)sulfinyl)quinolin-4(1H)-one] | > 10000 nM | > 2000 nM | > 10000 nM | 1020 nM | > 10000 nM | > 2000 nM | 1720 nM | 1350 nM | 850 nM | > 2000 nM
15 | CC(=O)c1c([S+]([O-])Cc2ccc(NS(C)(=O)=O)cc2)[nH]c2c(Br)ccc(Cl)c2c1=O (stereo not shown) [Compound 103, N-(4-(((3-acetyl-8-bromo-5-chloro-4-oxo-1,4-dihydroquinolin-2-yl)sulfinyl)methyl)phenyl)methane-sulfonamide] | > 10000 nM | > 2000 nM | > 10000 nM | > 2000 nM | > 10000 nM | > 2000 nM | > 2000 nM | > 2000 nM | 1740 nM | > 2000 nM
16 | CC(=O)c1c([S+]([O-])Cc2ccc(Cl)nc2)[nH]c2c(Br)ccc(Cl)c2c1=O (stereo not shown) [Compound 104, 3-acetyl-8-bromo-5-chloro-2-(((6-chloropyridin-3-yl)methyl)sulfinyl)quinolin-4(1H)-one] | > 10000 nM | > 2000 nM | > 10000 nM | 1050 nM | > 10000 nM | > 2000 nM | 1540 nM | 1460 nM | 930 nM | > 2000 nM
17 | COCCNc1ccc(C[S+]([O-])c2[nH]c3c(Br)ccc(Cl)c3c(=O)c2C(C)=O)cn1 (stereo not shown) [Compound 105, 3-acetyl-8-bromo-5-chloro-2-(((6-((2-methoxyethyl)amino)pyridin-3-yl)methyl)sulfinyl)quinolin-4(1H)-one] | > 10000 nM | > 2000 nM | > 10000 nM | > 2000 nM | > 10000 nM | > 2000 nM | > 2000 nM | > 2000 nM | > 2000 nM | > 2000 nM
18 | CC(=O)c1c([S+]([O-])Cc2nonc2C)[nH]c2c(Br)ccc(Cl)c2c1=O (stereo not shown) [Compound 106, 3-acetyl-8-bromo-5-chloro-2-(((4-methyl-1,2,5-oxadiazol-3-yl)methyl)sulfinyl)quinolin-4(1H)-one] | > 10000 nM | > 2000 nM | > 10000 nM | > 2000 nM | > 10000 nM | > 2000 nM | > 2000 nM | > 2000 nM | > 2000 nM | > 2000 nM
19 | CC(=O)c1c([S+]([O-])Cc2cnc3[nH]ccc3c2)[nH]c2c(Br)ccc(Cl)c2c1=O (stereo not shown) [Compound 107, 2-(((1H-pyrrolo[2,3-b]pyridin-5-yl)methyl)sulfinyl)-3-acetyl-8-bromo-5-chloroquinolin-4(1H)-one] | > 10000 nM | > 2000 nM | > 10000 nM | > 2000 nM | > 10000 nM | > 2000 nM | > 2000 nM | > 2000 nM | > 2000 nM | > 2000 nM
